In patent US7455984B2, “Immunoreactive and immunotherapeutic molecules” (The Walter and Eliza Hall Institute of Medical Research, priority 1995, dated 2008):

System: Peripheral blood mononuclear cells from IDDM at-risk and HLA-DR matched control subjects
Assay: T-cell proliferation assay ([3H]thymidine incorporation, delta score), ten HLA-DR matched pairs
Assay type: cell-based, human
Details: for Reactivity (T-cell proliferation) by subject group: IDDM at-risk and control subjects, ten pairs; for Delta Score, Mean: mean of 10 subjects; for T-cell proliferative response, IDDM at-risk versus control subjects: highest concentration of peptide, Wilcoxon one-tailed paired analysis (proinsulin p<0.008; GAD p<0.018)

Sequence	Reactivity (T-cell proliferation) by subject group	Delta Score, Mean (Proinsulin 0.4 μg/ml, At Risk, Wilcoxon one-tailed P 0.054 vs Control)	Delta Score (Proinsulin 0.4 μg/ml, Control subject of each pair)	Delta Score, Mean (Proinsulin 0.4 μg/ml, Control)	Delta Score, Mean (Proinsulin 2 μg/ml, At Risk, Wilcoxon one-tailed P 0.125 vs Control)	Delta Score, Mean (Proinsulin 2 μg/ml, Control)	Delta Score, Mean (Proinsulin 10 μg/ml, At Risk, Wilcoxon one-tailed P 0.008 vs Control)	Delta Score, Mean (Proinsulin 10 μg/ml, Control)	T-cell proliferative response, IDDM at-risk versus control subjects	Delta Score, Mean (GAD 0.4 μg/ml, At Risk, Wilcoxon one-tailed P 0.199 vs Control)	Delta Score, Mean (GAD 0.4 μg/ml, Control)	Delta Score, Mean (GAD 2 μg/ml, At Risk, Wilcoxon one-tailed P 0.199 vs Control)	Delta Score, Mean (GAD 2 μg/ml, Control)	Delta Score, Mean (GAD 10 μg/ml, At Risk, Wilcoxon one-tailed P 0.018 vs Control)	Delta Score, Mean (GAD 10 μg/ml, Control)
CRFDPQFALTNIAVRK [unrelated control peptide, irrelevant control peptide (Macromolecular Resources, Fort Collins, Colo.), reference compound]	no subject reacted														
FFYTPKTRREAED [Proinsulin, synthetic 13-mer peptide of human proinsulin, amino acid residues 24-36]	confined almost entirely to IDDM at-risk subjects	136.0 cpm	0 cpm	0 cpm	251.1 cpm	45.8 cpm	558.7 cpm	27.6 cpm	greater among IDDM at-risk than control subjects						
FWYIPPSLRTLED [GAD, synthetic 13-mer peptide of human GAD 65, amino acid residues 506-518]	some controls also responded								greater among IDDM at-risk than control subjects	135.3 cpm	34.1 cpm	133.0 cpm	178.2 cpm	1042.4 cpm	318.1 cpm
